Consider four compounds from publication PMC4547397, “A Caged Ret Kinase Inhibitor and its Effect on Motoneuron Development in Zebrafish Embryos” (Scientific Reports, 2015).

Entries after “also recorded” stand apart in the source; their conditions may differ. Like-named read-outs stand apart in the source and are kept apart here.

The target of data set [1] is RET kinase (c-RET-GFRα2) (Homo sapiens, UniProt P07949). Nature of the data set: PathHunter express c-RET-GFRα2 functional live-cell assay (neurturin stimulated). The format is cell-based.
Sequence of RET kinase (c-RET-GFRα2) (P07949 29-1114): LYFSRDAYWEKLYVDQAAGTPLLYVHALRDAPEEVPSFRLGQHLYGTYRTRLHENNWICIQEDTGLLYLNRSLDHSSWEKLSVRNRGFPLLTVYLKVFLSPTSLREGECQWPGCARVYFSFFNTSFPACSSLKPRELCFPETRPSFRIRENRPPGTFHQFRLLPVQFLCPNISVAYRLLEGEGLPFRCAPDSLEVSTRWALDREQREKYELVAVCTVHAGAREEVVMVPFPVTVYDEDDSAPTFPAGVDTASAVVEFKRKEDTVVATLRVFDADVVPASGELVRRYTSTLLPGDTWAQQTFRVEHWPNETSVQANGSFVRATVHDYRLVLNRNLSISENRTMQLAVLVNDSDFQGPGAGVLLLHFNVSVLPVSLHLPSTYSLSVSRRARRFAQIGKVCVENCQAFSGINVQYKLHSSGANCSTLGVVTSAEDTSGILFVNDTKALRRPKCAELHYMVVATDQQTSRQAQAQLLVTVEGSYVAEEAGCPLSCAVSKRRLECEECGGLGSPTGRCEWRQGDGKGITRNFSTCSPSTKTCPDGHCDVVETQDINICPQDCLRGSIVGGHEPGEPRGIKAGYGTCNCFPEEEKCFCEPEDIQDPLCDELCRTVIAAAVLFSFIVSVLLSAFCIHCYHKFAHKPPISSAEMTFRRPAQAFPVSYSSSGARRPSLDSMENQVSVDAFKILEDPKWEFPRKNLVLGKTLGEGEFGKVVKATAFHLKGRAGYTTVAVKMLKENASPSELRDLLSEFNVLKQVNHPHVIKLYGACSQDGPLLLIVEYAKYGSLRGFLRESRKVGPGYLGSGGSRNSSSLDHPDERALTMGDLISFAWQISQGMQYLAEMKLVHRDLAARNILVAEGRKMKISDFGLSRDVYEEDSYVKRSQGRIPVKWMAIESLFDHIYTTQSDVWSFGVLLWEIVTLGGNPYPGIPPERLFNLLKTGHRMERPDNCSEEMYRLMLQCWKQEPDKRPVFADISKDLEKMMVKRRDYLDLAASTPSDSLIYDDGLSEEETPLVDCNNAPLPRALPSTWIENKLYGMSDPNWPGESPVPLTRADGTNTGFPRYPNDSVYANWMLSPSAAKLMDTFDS
Protocol: The photoactivation of 6 was also tested in a RET functional whole cell assay which utilizes β-galactosidase to produce a luminescent readout[24][25][26] (see Methods section for assay details). Compound 6 was added to live cells expressing RET kinase in two identical preparations, followed by 3 h preincubation at 37 °C. At this point, one preparation was exposed to light (365 nm, 15 min), while the other was kept in the dark. Again, 15 min is clearly not sufficient to complete the decaging (see above). Addition of the growth factor neurturin (required to activate the RET kinase) and incubation for 3 h at 22 °C allowed for activity-correlating signal induction using the supplemented detection reagents. […] To again exclude distortive effects of light on the cells, incubations without inhibitor were exposed to light.
PathHunter express c-RET-GFRα2 functional assay and recombinant human neurturin were purchased from DiscoveRx (DiscoveRx Corporation, Fremont CA 94538 USA) and used according to instructions. […] Incubations were performed in the provided assay buffer (1 vol% DMSO) in a white flat/clear-bottom 96-well plate. Incubation volume was 110 μL. Brief procedure; Cells were thawed and diluted to ca. 100 000 cells/mL, followed by plating and acclimatization in 37 °C, 5% CO2, humidified, environment for 48 h. Thereafter, the inhibitor was added and the plate was returned to 37 °C for 3 h. The cells were then stimulated with the GDNF-family growth factor neurturin (applied concentration: 15 ng/mL = EC80) and incubated 3 h at 22 °C in the dark. An activity-correlating luminescence signal was induced using the detection reagent provided in the kit according to the recommended protocol. Luminescence was recorded on a BMG Labtech Fluostar Omega luminometer. All incubations were done in duplicates.
Data set [2] has as its system GDNF-induced RET phosphorylation of ERK1/2. The arrangement: method as in PMID 22559926. Conditions: cited from earlier work.
Data set [3] has as its system C643 cells. The arrangement: method as in PMID 25409876. Conditions: cited from earlier work.
Data set [4] relates to RET/PTC1 expressing TPC1 cells. Further details: method as in PMID 25409876. Conditions: cited from earlier work.
The subject of data set [5] is MCF7 cells. The arrangement: method as in PMID 25409876. The note with it: cited from earlier work.
Data set [6] has as its system RET. Further details: method as in PMID 22559926. The note with it: cited from earlier work.
Data set [7] deals with 8505C cells. The arrangement: method as in PMID 25409876. The note with it: cited from earlier work.
Data set [8] addresses T1, Human recombinant RET (Homo sapiens, UniProt P07949).
T1 construct: purchased Promega; host or cells: Sf9 insect cells
The data set can be described thus: In vitro (cell-free) RET kinase incubation, luminescent ADP detection. The data set is classed as biochemical. Conditions: for IC50: read-out: IC50, RET-induced ATP turnover; for RET kinase activity: 1.6 μM. The protocol:
With the caged compound in hand, the ability to photocontrol the inhibition of RET kinase was assessed. For this purpose, an in vitro assay with purified RET kinase was used to measure ADP production during substrate phosphorylation. Compound 6 was added to two parallel preparations comprising RET kinase and substrate. One preparation was exposed to light (365 nm, 15 min), while the other was kept in the dark.
After adding ATP and incubating at room temperature for 30 min, the relative ATP turnover was assessed. […] For example; irradiating an administered dose of 1.6 μM 6, would modulate the RET kinase activity from 90% to 10%.
Human recombinant RET expressed in Sf9 insect cells (Specific Activity: 220 nmol^−1min^−1mg^−1), substrate (IGFlRtide), and ATP were purchased in an assay ready kit from Promega[37] (Promega Corporation, Madison WI 53711 USA) and used as received. Incubations were performed in 40 mM Tris buffer (pH 7.4, 1 vol% DMSO) supplemented with 50 μM DTT and 20 mM MgCl2 in a white flat-bottom 96-well plate. Incubation volume was 25 μL. Brief procedure; Kinase (0.8 μg/mL), substrate (40 μg/mL), ATP (10 μM) and inhibitor were combined and incubated for 30 min at room temperature in the dark, with shaking. After the kinase reaction, two detection reagents were added in a stepwise manner. The first reagent depleted the remaining (unreacted) ATP in the reaction mix. The second reagent converted the ADP produced in the kinase reaction to ATP and generated a luminescence signal using a luciferase/luciferin reaction. The light generated is proportional to the amount ADP present and, consequently, to the kinase activity. Luminescence was recorded on a BMG Labtech Fluostar Omega luminometer. All incubations were done in duplicates.
2. Fitting of dose-response data
Positive and negative control experiments with and without light exposure (15 min, 365 nm) were run in parallel to the inhibitor incubations. The positive control was identical to the inhibitor experiment but with buffer additions instead of ATP and Neurturin for the cell-free and live-cell incubation, respectively. The negative control was identical to the inhibitor experiment but with inhibitor diluent (DMSO) addition instead of inhibitor. The intensity reading from the positive control was subtracted from the corresponding value from the inhibitor incubation. This was followed by normalization to the negative control reading. The resulting luminescence intensities (I) at the applied inhibitor concentrations (C) were fitted to […]
A global, error-weighted (instrumental) fit was performed by making the top- (A2) and bottom (A1) asymptotes shared parameters for the included data sets. […]
140/2013, and followed the guidelines of the Swedish National Board for Laboratory

Data set [9] relates to zebrafish embryos tg(olig2:dsRed) (ret). The data set can be described thus: Motoneuron development in zebrafish embryos, confocal imaging at 2 dpf. The format is in vivo, Danio rerio. The protocol: In the light of this, we chose to investigate the decaging of 6 in the transgenic zebrafish line tg(olig2:dsRed)[33], and any effect this may have on the motoneuron development. The choice of zebrafish line is motivated by the labeling of ventral spinal cord precursor cells that produce motoneurons and oligodendrocytes, facilitating the assessment of altered motoneuron phenotypes. Transgenic zebrafish embryos were incubated in 10 μM and 50 μM solutions of 6 at 3 hours post fertilization (hpf) for 11 h. We opted for decaging at 14 hpf since primary motoneurons start to sprout growth cones at 18 hpf[36]. We hypothesized that blocking ret signalling at this time point would primarily affect axonal extension and not formation of motoneurons. After washing with fresh medium the embryos were irradiated for 15 min (365 nm). The embryos were left to develop until 2 days post fertilization (dpf) when their spinal cords were scanned with confocal imaging. […] All experimental procedures were carried out in compliance with relevant guidelines and regulations of the Swedish National Board for Laboratory Animals. The protocols were also approved by the medical ethics committee of University of Gothenburg. Zebrafish (Danio rerio) embryos of strain tg(olig2:dsRed)[32] were kept at the Institute of Neuroscience and Physiology, University of Gothenburg. Fertilized eggs were collected and kept in petri dishes containing embryo medium (EM; 5.03 mM NaCl, 0.17 mM KCl, 0.33 mM CaCl2·2H2O, 0.33 mM MgCl2·6H2O), in darkness, in an incubator at 28.5 °C. Eggs were incubated in either 6 or 1% DMSO from 3 hours post-fertilization (hpf) and then dechorinated at 9 hpf to allow for better compound uptake. After 11 hours of incubation, 14 hpf embryos were washed three times with EM and moved to clean petri dishes containing 1-phenyl 2-thiourea (PTU, 0,003%, Sigma) and diluted in EM to prevent pigmentation. Embryos were irradiated for 15 min (365 nm) and then kept in the incubator until time of confocal imaging. A second set of animals were incubated in 6 from 14 hpf to 24 hpf, after which animals were washed and illuminated in the same way as the first group. Prior to imaging at 2 days post-fertilization (dpf), the embryos were anesthetized using 0.02% tricaine methanesulfonate (MS-222) diluted in EM and embedded in low-melting agarose. The imaging was performed on a ZEISS LSM710 confocal microscope at the Centre for Cellular Imaging at the Sahlgrenska Academy. Stacks of labeled spinal cord neurons were collected using a 561 nm laser. Maximal intensity pictures of spinal cord hemisegments and axonal phenotypes were analyzed using ImageJ (U. S. National Institutes of Health, Bethesda, Maryland, USA) according to Abramsson et al. 2013[38].

Data set [10] concerns cell lines used (TPC1, 8505C, C643, MCF7). Further details: method as in PMID 25409876. Conditions: any of the cell lines used; cited from earlier work.
The nature of data set [11]: Solubility in aqueous media / buffer. The data set is classed as physicochemical.
Data set [12] in a line: Light-induced decaging (365 nm) monitored by HPLC. The format is physicochemical. Here is the method: Indeed, this compound was soluble in aqueous buffer (1 vol% DMSO) up to 100 μM. Photoinduced cleavage of 6 was readily achieved with 365 nm light, as monitored by HPLC.
(§1) Steady state absorption measurements (for thermal stability assessment of 6, see Fig. S3) were carried out on a Cary Bio 50 UV/vis spectrometer equipped with a Varian PCB 1500 Water Peltier System thermostat for temperature control. Sample volume was 3.0 mL. […] Irradiation in the assays was accomplished by placing the lamp directly on top of the sample plates/dishes. It should be noted that the exact light conditions in the assays may differ slightly depending on the type of plates/dishes used (see Methods sections below for plate specifications).
Figure S1. Light-induced decaging of 6. A Tris buffer solution (1vol% DMSO) containing 100 µM 6 was successively subjected to t = 0, 3, 6, 9, 12, 15, 30, 60, and 90 min of 365 nm light. After each irradiation period, an aliquot was drawn and analyzed using HPLC with UV detection. The integrated areas for the chromatogram peaks associated with 1 (hollow squares) and 6 (solid circles) were fitted globally (shared time constant) to a first order exponential (solid line), yielding a time constant of τ = 9.6 min for the decaging of 6. It should be noted that the individually extracted time constants for […]
from the globally fitted value.
(§2) (1 picture or pasted object on this page, not shown here)

A short description of data set [13]: Thermal stability in aqueous buffer by UV/vis absorption. The format is physicochemical. The note with it: 48 h, 37 °C, 10 mM phosphate buffer pH 7.0, 1 vol% DMSO. Here is the method:
as §1
5.3 Thermal stability of 6 in 10 mM phosphate buffer, pH 7.
Figure S3. UV/vis absorption spectra of 6 in 10 mM phosphate buffer (pH 7.0, 1 vol% DMSO) at
t = 0 (solid black line), and after t = 48 h in 37 °C (dashed red line). Inset: Absorption at λ = 321 nm as
as §2

Where [14] appears, read: 100 µM 6 in Tris buffer 1 vol% DMSO.

T1 sequence (P07949 29-1114): as above

As to `CC(C)n1nc(C#Cc2ccccc2)c2c(N)ncnc21` [compound 1], the IC50 – broadly, the midpoint of a concentration-inhibition curve – was determined as 0.47 µM in [1] (free inhibitor, no irradiation, 3 h preincubation 37 °C) and 0.072 µM in [8] (free inhibitor, no irradiation, 10 μM ATP, 30 min room temperature). For the same compound, the “effect on GDNF-induced RET phosphorylation of ERK1/2” value in data set [2] is “inhibitory effect”. Further, the results for the “MAPK signalling and proliferation” value in data set [3], in data set [4] and in data set [7] were “not”, “inhibited” and “not”, respectively. For the same compound, the “PI3K/Akt and MAPK signalling and estrogen receptor α (ERα) phosphorylation” value in data set [5] is listed as “inhibited”. In [5], the proliferation result is given as “inhibit proliferation to a similar degree as tamoxifen”. Besides, in [6], the “in vitro activity against RET” value is “low nM range”. Moreover, in data set [6], the “selectivity profile toward RET” value is given as “partial inhibition of only six other tyrosine kinases”. The motoneuron axonal phenotype result in [9] (10 μM during development) and in data set [9] (50 μM for 90 min at 6 hpf) was “phenotype was also observed” each time. Further, in data set [10], the cytotoxicity result is recorded as “No cytotoxicity was observed”.

As for `COc1cc(COC(=O)Nc2ncnc3c2c(C#Cc2ccccc2)nn3C(C)C)c([N+](=O)[O-])cc1OC` [compound 2], the “solubility in aqueous media” value in data set [11] was “insufficiently soluble”.

`COc1cc(COC(=O)Nc2ncnc3c2c(C#Cc2ccccc2)nn3CCO)c([N+](=O)[O-])cc1OC` [compound 3]: the “solubility in aqueous media” value in [11] is recorded as “too low to be practical for biological assays”.

Consider `COc1cc(COC(=O)Nc2ncnc3c2c(C#Cc2ccccc2)nn3C(C)C)c([N+](=O)[O-])cc1OCC(=O)O` [compound 6, 2-(4-((((1-isopropyl-3-(phenylethynyl)-1H-pyrazolo[3,4-d]pyrimidin-4-yl)carbamoyl)oxy)methyl)-2-methoxy-5-nitrophenoxy)acetic acid], for which the IC50 in data set [1] (irradiated (365 nm, 15 min)) was 8.7 µM; in data set [8] (non-irradiated (kept in the dark)), 6.8 µM. In addition, the “IC50, live-cell RET activity” value in data set [1] (non-irradiated) is reported as “no IC50 value could be obtained”. The “partial inhibition of RET activity in live cells” value in [1] (non-irradiated, at concentrations higher than 6 μM) was “ca. 40%”. Also, in [12], the “exposure time required for complete (>99%) decaging” value is “at least 45 minutes”. For the same compound, in data set [12] (setting [14]), the “time constant τ, consumption of 6 (individual fit)” value is reported as 8.7 min. Besides, the “time constant τ, liberation of 1 (individual fit)” value in data set [12] (setting [14]) is on record as 13.1 min. The “time constant τ of decaging, global fit (first order)” value in data set [12] (1.5 mW/cm^2, 100 µM in Tris buffer 1 vol% DMSO) worked out at 9.6 min. Further, in data set [13], the “thermal stability (absorption spectrum)” value is “no changes in the absorption spectrum were detected; also recorded: No signs of degradation”. The solubility (in general, the dissolved amount per volume that the medium holds) in data set [11] (kinetic from dmso stock, aqueous buffer, 1 vol% DMSO) is not above 100 µM. The RET kinase activity in data set [8] (after irradiation) is recorded as 10%; in data set [8] (before irradiation), 90%. Besides, the “increase of inhibitory capability upon light exposure” value in [8] (irradiated (365 nm, 15 min) vs non-irradiated) was found to be 12 fold. Moreover, the motoneuron axonal phenotype result in data set [9] (10 μM, irradiated 15 min at 14 hpf) was “virtually no effect”; in data set [9] (50 μM from 3 hpf for 11 h, irradiated 15 min 365 nm at 14 hpf, imaged 2 dpf), “motoneurons with shortened and malformed axons”; in data set [9] (irradiated at 24 hpf after 10 h of incubation and wash), “similar, but less severe, axonal phenotypes”; in data set [9] (non-irradiated embryos (50 μM)) it was “did not show any phenotypic anomalies”.
